The values below come from patent US12612408B2, “Pyrazolone-fused pyrimidine compound, preparation method for same and applications thereof” (SHANGHAI PHARMACEUTICALS HOLDING CO., LTD., priority 2019, dated 2026).

The structures appear in SMILES notation. Read-outs that look alike come from different tables or passages of the source.

The data set in a line: Bioavailability test in vivo in cynomolgus monkey (pharmacokinetics, IV and PO). The conditions noted are these: cynomolgus monkeys. The protocol:
Twelve male Non-Naïve cynomolgus monkeys were purchased from GuangxiGuidong Primate Development Experiment Co. LTD.
54.31 mg of I-8-1 was accurately weighed, and 1.08 mL of DMSO was added, then the mixture was vortexed for 1 min, sonicated for 15 min, and then diluted to 36 mL according to the ratio of 10% HP-β-cyclodextrin (prepared by normal saline): PEG=8:2, vortexed for 1 min. A colorless clarified administration solution (the pH value was about 7) at a concentration of 1.5 mg/mL was prepared for intravenous administration to Group 1.
300.9 mg of I-8-1 was accurately weighed, and 75 mL of 0.5% CMC-Na was added, the mixture was fully ground and stirred for 5 min. A white suspension (the pH value was about 7) at a concentration of 4 mg/mL was prepared for oral administration to Group 2.
54.05 mg of AZD1775 was accurately weighed, and 1.08 mL of DMSO was added, then he mixture was vortexed for 1 min, sonicated for 15 min, and then diluted to 36 mL according to the ratio of 10%-D-cyclodextrin (prepared by normal saline): PEG=8:2, vortexed for 1 min. A yellow clarified administration solution (the pH value was about 7) at a concentration of 1.5 mg/mL was prepared for intravenous administration to Group 3.
300.7 mg of AZD1775 was accurately weighed, and 75 mL of 0.5% CMC-Na was added, the mixture was fully ground and stirred for 5 min. A yellow suspension (the pH value was about 7) at a concentration of 4 mg/mL was prepared for oral administration to Group 4.
Before administration, all animals were fasted overnight (approximately 12 hours) and fed as required and administered according to the table below.
Intravenous group: before administration (0 h), 0.033 h, 0.083 h, 0.25 h, 0.5 h, 1 h, 1.5 h, 2 h, 4 h, 6 h, 8 h, 12 h, 24 h after administration.
Oral group: before administration (0 h), 0.083 h, 0.25 h, 0.5 h, […], 2 h, 4 h, 6 h, 8 h, 12 h, 24 h after administration.
Blood samples were collected by puncture through lower limb vein or other suitable blood vessels at 1 mL/time point (3 mL of blood samples were collected from each animal before administration), anticoagulated with heparin sodium, and placed on ice after collection. Plasma was separated at 2200 g/min, 10 min, 2-8° C., plasma samples were stored in a −80° C. refrigerator before being transferred to the client. Plasma samples are stored in dry ice and transferred to the client. The final treatment of the sample will be recorded in the experimental record.
300 μL of acetonitrile was added to 50 μL of plasma samples containing internal standard (Propranolol, 25 ng/mL) to precipitate protein, vortexed for 10 min, centrifuged at 6000 g for 10 min, after I-8-1&AZD1775 intravenous injection group was diluted 10 times with internal standard acetonitrile (Propranolol, 25 ng/mL) at the time point before 1 hour, the remaining supernatant was not diluted, centrifuged again at 6000 g at 4° C. for 10 min, and the supernatant was taken and injected into a 96 well plate.
Dose; peak concentration: Cmax; peak time: Tmax; area under the drug-time curve from AUClast 0 to time t; half-life: T1/2; mean retention time: MRT; clearance: Cl; apparent distribution volume: Vz; steady-state distributed volume: Vss; absolute bioavailability: F.
The pharmacokinetic parameters of the compound in cynomolgus monkeys after intravenous injection or intragastric administration were shown in Table 6 below.

[1] abbreviates: male, cynomolgus monkey, plasma, iv, 3 mg/kg.
[2] abbreviates: male, cynomolgus monkey, plasma, po, 20 mg/kg, fasted.

Consider `C=CCn1c(=O)c2cnc(Nc3ccc(C4CCC(N5CCC5)CC4)cc3)nc2n1-c1cccc(C(C)(C)O)n1` (single isomer, unassigned) [Compound I-8-1], for which, for the setting “iv, 3 mg/kg”, the AUCextra is reported as 16.11 ± 9.34 (h)*(ng/mL), the AUClast is on record as 957.6 ± 126.3 (h)*(ng/mL), the AUCtot is given as 973.8 ± 131.4 (h)*(ng/mL) and the thalf is 2.05 ± 1.24 h. For the setting “po, 20 mg/kg, fasted”, the AUCextra is reported as 187.03 ± 166.00 (h)*(ng/mL), the AUClast is 6548 ± 3043 (h)*(ng/mL), the AUCtot was 6735 ± 3201 (h)*(ng/mL) and the thalf is on record as 3.71 ± 0.72 h. Besides, the Vd (male, cynomolgus monkey, plasma, iv, 3 mg/kg, iv, 3 mg/kg, read-out: Vss) was 9.67 ± 1.32 L/kg. For the same molecule, where the note is “male, cynomolgus monkey, plasma, iv, 3 mg/kg, iv, 3 mg/kg, read-out: Vz”, the Vd was determined as 8.78 ± 4.22 L/kg. In addition, under setting [1], the concentration peaked (Cmax) at 838 ± 190 ng/mL, the MRT was 3.17 ± 0.82 h, the Tmax amounted to 0.03 h and the clearance is 52 mL/min/kg. For the same molecule, the bioavailability (male, cynomolgus monkey, plasma, po 20 mg/kg vs iv 3 mg/kg, read-out: BA (absolute bioavailability)) came out at 103%. Under setting [2], the highest level (Cmax) was 721 ± 260 ng/mL, the MRT amounted to 7.91 ± 2 h and the Tmax is 4.5 ± 2.6 h.

In general, Cmax refers to the highest concentration seen after dosing. In general, MRT refers to a mean duration of stay, worked out from the concentration-time curve. A word on the Tmax: it is the time at which the peak concentration occurs.
